Results as given in PubChem BioAssay AID2060491 (Molecular Pharmacology Branch, DTP, NCI, 2025).

System: 857933-349-R-J2-PDC complex spheroids, viability
Assay: Anticancer human tumor 857933-349-R-J2-PDC patient-derived colon adenocarcinoma cell line growth inhibition [GQUAD]
Details: for IC50: curve of first compound; for viability, T/C: stronger effect = lower value
Outline: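 Multi-cell-type spheroids of tumor cells with HUVEC and mesenchymal stem cells, treated with drug combinations. Concentrations descend in half-log steps from near clinical Cmax, or from 10 microM where Cmax is unknown; viability read-out.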

[1] = second compound 0.0316 µM, first compound 0.0316 µM
[2] = second compound 0.0316 µM, first compound 0.1 µM
[3] = second compound 0.0316 µM, first compound 0.316 µM
[4] = second compound 0.0316 µM, first compound 1 µM
[5] = second compound 0.0316 µM, first compound 3.16 µM
[6] = second compound 0.0316 µM, first compound 10 µM
[7] = second compound 0.1 µM, first compound 0.0316 µM
[8] = second compound 0.1 µM, first compound 0.1 µM
[9] = second compound 0.1 µM, first compound 0.316 µM
[10] = second compound 0.1 µM, first compound 1 µM
[11] = second compound 0.1 µM, first compound 3.16 µM
[12] = second compound 0.1 µM, first compound 10 µM
[13] = second compound 0.316 µM, first compound 0.0316 µM
[14] = second compound 0.316 µM, first compound 0.1 µM
[15] = second compound 0.316 µM, first compound 0.316 µM
[16] = second compound 0.316 µM, first compound 1 µM
[17] = second compound 0.316 µM, first compound 3.16 µM
[18] = second compound 0.316 µM, first compound 10 µM
[19] = second compound 1 µM, first compound 0.0316 µM
[20] = second compound 1 µM, first compound 0.1 µM
[21] = second compound 1 µM, first compound 0.316 µM
[22] = second compound 1 µM, first compound 1 µM
[23] = second compound 1 µM, first compound 3.16 µM
[24] = second compound 1 µM, first compound 10 µM
[25] = second compound 3.16 µM, first compound 0.0316 µM
[26] = second compound 3.16 µM, first compound 0.1 µM
[27] = second compound 3.16 µM, first compound 0.316 µM
[28] = second compound 3.16 µM, first compound 1 µM
[29] = second compound 3.16 µM, first compound 3.16 µM
[30] = second compound 3.16 µM, first compound 10 µM
[31] = second compound 10 µM, first compound 0.0316 µM
[32] = second compound 10 µM, first compound 0.1 µM
[33] = second compound 10 µM, first compound 0.316 µM
[34] = second compound 10 µM, first compound 1 µM
[35] = second compound 10 µM, first compound 3.16 µM
[36] = second compound 10 µM, first compound 10 µM
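Further: spheroids exposed to compounds for one week before readout.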
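Wherever viability, T/C is given: percent viability relative to vehicle DMSO wells taken as 100%.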

C#Cc1c(F)ccc2cc(O)cc(-c3ncc4c(N5CC6CCC(C5)N6)nc(OCC56CCCN5CC(F)C6)nc4c3F)c12 (stereo not drawn) + Cc1cnc(CNC(=O)c2c(=O)c3ccc(N4CCCN(C)CC4)nc3n3c2sc2ccccc23)cn1
IC50 (second compound 0.0316 µM): > 10000 nM
IC50 (second compound 0.1 µM): > 10000 nM
IC50 (second compound 0.316 µM): < 31.6 nM
IC50 (second compound 1 µM): < 31.6 nM
IC50 (second compound 3.16 µM): < 31.6 nM
IC50 (second compound 10 µM): < 31.6 nM
viability, T/C [1]: 101%
viability, T/C [2]: 81.6%
viability, T/C [3]: 72.6%
viability, T/C [4]: 64.5%
viability, T/C [5]: 76.5%
viability, T/C [6]: 63.5%
viability, T/C [7]: 59%
viability, T/C [8]: 64.7%
viability, T/C [9]: 54.6%
viability, T/C [10]: 61.5%
viability, T/C [11]: 68.3%
viability, T/C [12]: 64.3%
viability, T/C [13]: 23.7%
viability, T/C [14]: 24.6%
viability, T/C [15]: 22.4%
viability, T/C [16]: 19.5%
viability, T/C [17]: 22.6%
viability, T/C [18]: 25.7%
viability, T/C [19]: 3.9%
viability, T/C [20]: 5%
viability, T/C [21]: 2.72%
viability, T/C [22]: 2.84%
viability, T/C [23]: 3.14%
viability, T/C [24]: 1.95%
viability, T/C [25]: 2.08%
viability, T/C [26]: 2.35%
viability, T/C [27]: 1.86%
viability, T/C [28]: 1.3%
viability, T/C [29]: 1.63%
viability, T/C [30]: 0.57%
viability, T/C [31]: 0.16%
viability, T/C [32]: 0.2%
viability, T/C [33]: 0.25%
viability, T/C [34]: 0.19%
viability, T/C [35]: 0.24%
viability, T/C [36]: 0.21%

CCCS(=O)(=O)Nc1ccc(F)c(C(=O)c2c[nH]c3ncc(-c4ccc(Cl)cc4)cc23)c1F + Cc1cnc(CNC(=O)c2c(=O)c3ccc(N4CCCN(C)CC4)nc3n3c2sc2ccccc23)cn1
IC50 (second compound 0.0316 µM): 5200 nM
IC50 (second compound 0.1 µM): 1720 nM
IC50 (second compound 0.316 µM): < 31.6 nM
IC50 (second compound 1 µM): < 31.6 nM
IC50 (second compound 3.16 µM): < 31.6 nM
IC50 (second compound 10 µM): < 31.6 nM
viability, T/C [1]: 85.1%
viability, T/C [2]: 88.8%
viability, T/C [3]: 77.6%
viability, T/C [4]: 83.8%
viability, T/C [5]: 86.5%
viability, T/C [6]: 4.81%
viability, T/C [7]: 56.2%
viability, T/C [8]: 58.5%
viability, T/C [9]: 52.4%
viability, T/C [10]: 48.9%
viability, T/C [11]: 47.5%
viability, T/C [12]: 3.42%
viability, T/C [13]: 24%
viability, T/C [14]: 20.3%
viability, T/C [15]: 19.5%
viability, T/C [16]: 12.1%
viability, T/C [17]: 5.66%
viability, T/C [18]: 1.91%
viability, T/C [19]: 3.43%
viability, T/C [20]: 2.87%
viability, T/C [21]: 2.84%
viability, T/C [22]: 2.64%
viability, T/C [23]: 3.04%
viability, T/C [24]: 1.06%
viability, T/C [25]: 2.4%
viability, T/C [26]: 2.36%
viability, T/C [27]: 2.38%
viability, T/C [28]: 1.58%
viability, T/C [29]: 2.13%
viability, T/C [30]: 0.14%
viability, T/C [31]: 0.2%
viability, T/C [32]: 0.21%
viability, T/C [33]: 0.23%
viability, T/C [34]: 0.22%
viability, T/C [35]: 0.23%
viability, T/C [36]: 0.22%

Cc1[nH]c2ccccc2c1CCNCc1ccc(/C=C/C(=O)NO)cc1 + Cc1cnc(CNC(=O)c2c(=O)c3ccc(N4CCCN(C)CC4)nc3n3c2sc2ccccc23)cn1
IC50 (second compound 0.0316 µM): 267 nM
IC50 (second compound 0.1 µM): 155 nM
IC50 (second compound 0.316 µM): < 0.999 nM
IC50 (second compound 1 µM): < 0.999 nM
IC50 (second compound 3.16 µM): < 0.999 nM
IC50 (second compound 10 µM): < 0.999 nM
viability, T/C (second compound 0.0316 µM, first compound 0.000999 µM): 91%
viability, T/C (second compound 0.0316 µM, first compound 0.00316 µM): 93.7%
viability, T/C (second compound 0.0316 µM, first compound 0.00999 µM): 106%
viability, T/C [1]: 86.5%
viability, T/C (second compound 0.0316 µM, first compound 0.0999 µM): 93.8%
viability, T/C [3]: 42.5%
viability, T/C (second compound 0.1 µM, first compound 0.000999 µM): 51.7%
viability, T/C (second compound 0.1 µM, first compound 0.00316 µM): 65.6%
viability, T/C (second compound 0.1 µM, first compound 0.00999 µM): 65.6%
viability, T/C [7]: 77%
viability, T/C (second compound 0.1 µM, first compound 0.0999 µM): 75.5%
viability, T/C [9]: 22.2%
viability, T/C (second compound 0.316 µM, first compound 0.000999 µM): 20.1%
viability, T/C (second compound 0.316 µM, first compound 0.00316 µM): 27.2%
viability, T/C (second compound 0.316 µM, first compound 0.00999 µM): 28.9%
viability, T/C [13]: 47.6%
viability, T/C (second compound 0.316 µM, first compound 0.0999 µM): 37.1%
viability, T/C [15]: 3.64%
viability, T/C (second compound 1 µM, first compound 0.000999 µM): 4.8%
viability, T/C (second compound 1 µM, first compound 0.00316 µM): 4.9%
viability, T/C (second compound 1 µM, first compound 0.00999 µM): 6.18%
viability, T/C [19]: 9.89%
viability, T/C (second compound 1 µM, first compound 0.0999 µM): 5.17%
viability, T/C [21]: 0.17%
viability, T/C (second compound 3.16 µM, first compound 0.000999 µM): 2.36%
viability, T/C (second compound 3.16 µM, first compound 0.00316 µM): 3.21%
viability, T/C (second compound 3.16 µM, first compound 0.00999 µM): 2.34%
viability, T/C [25]: 1.12%
viability, T/C (second compound 3.16 µM, first compound 0.0999 µM): 0.55%
viability, T/C [27]: 0.15%
viability, T/C (second compound 10 µM, first compound 0.000999 µM): 0.3%
viability, T/C (second compound 10 µM, first compound 0.00316 µM): 0.24%
viability, T/C (second compound 10 µM, first compound 0.00999 µM): 0.43%
viability, T/C [31]: 0.42%
viability, T/C (second compound 10 µM, first compound 0.0999 µM): 0.37%
viability, T/C [33]: 0.26%

O=C(NO)c1cnc(N2CCN(S(=O)(=O)c3ccc4ccccc4c3)CC2)nc1 + Cc1cnc(CNC(=O)c2c(=O)c3ccc(N4CCCN(C)CC4)nc3n3c2sc2ccccc23)cn1
IC50 (second compound 0.0316 µM): 538 nM
IC50 (second compound 0.1 µM): 372 nM
IC50 (second compound 0.316 µM): < 31.6 nM
IC50 (second compound 1 µM): < 31.6 nM
IC50 (second compound 3.16 µM): < 31.6 nM
IC50 (second compound 10 µM): < 31.6 nM
viability, T/C [1]: 95.5%
viability, T/C [2]: 79.8%
viability, T/C [3]: 79.5%
viability, T/C [4]: 15.9%
viability, T/C [5]: 0.04%
viability, T/C [6]: 0.06%
viability, T/C [7]: 65%
viability, T/C [8]: 69.3%
viability, T/C [9]: 56%
viability, T/C [10]: 11.7%
viability, T/C [11]: 0.05%
viability, T/C [12]: 0.08%
viability, T/C [13]: 19.9%
viability, T/C [14]: 24.9%
viability, T/C [15]: 24.2%
viability, T/C [16]: 1.65%
viability, T/C [17]: 0.03%
viability, T/C [18]: 0.07%
viability, T/C [19]: 4.31%
viability, T/C [20]: 2.8%
viability, T/C [21]: 1.46%
viability, T/C [22]: 0.09%
viability, T/C [23]: 0.04%
viability, T/C [24]: 0.07%
viability, T/C [25]: 1.32%
viability, T/C [26]: 0.92%
viability, T/C [27]: 0.23%
viability, T/C [28]: 0.12%
viability, T/C [29]: 0.08%
viability, T/C [30]: 0.09%
viability, T/C [31]: 0.16%
viability, T/C [32]: 0.2%
viability, T/C [33]: 0.2%
viability, T/C [34]: 0.14%
viability, T/C [35]: 0.15%
viability, T/C [36]: 0.18%
